Experimental data published in patent US20100184031A1, “NOVEL ADIPOCYTOKINE VISFATIN/PBEF1 IS AN APOPTOSIS ASSOCIATED FACTOR INDUCED IN MONOCYTES DURING IN VIVO HIV-1 INFECTION” (priority 2007, published 2010).

What was measured:
[1] = tested on: M-tropic R5 HIV lab-strain BaL; assay: In vitro infection of PBMC cultures with HIV BaL, p24 ELISA / TCID50; format: cell-based
[2] = tested on: M-tropic R5 HIV lab-strain BaL; assay: In vitro infection of monocyte-derived macrophages (MDM) with HIV BaL, p24 ELISA / TCID50; format: cell-based; conditions: MDM cultures
Description: (§1) For in vitro infection experiments, monocytes were obtained from buffy coats of healthy donors of the Blood Transfusion Center of Antwerp (Rode Kruis Vlaanderen, Belgium) by counterflow elutriation, as described previously (Van Herrewege et al., 2002). These cells were then differentiated to monocyte-derived macrophages (MDM) during seven days in RPMI 1640 medium (Bio-Whittaker, Verviers, Belgium) supplemented with 10% bovine fetal calf serum (Biochrom, Berlin, Germany), penicillin (100 U/ml) and streptomycin (100 μg/ml) (Roche Diagnostics, Mannheim, Germany) and 40 ng/ml M-CSF (PeproTech, London, United Kingdom) at 37° C. and 5.0% CO2. Half the medium was replaced after four days. Cells were then harvested and used for experiments in the same medium (without M-CSF).
(§2) For infection experiments, MDM were plated in 96-well plates at 7.5×10^5 cells/ml and pre-treated with recombinant visfatin (200 ng/ml) for 1 hour at 37° C. and 5.0% CO2. Then, virus was added in six-fold and incubated for 2 hours, again at 37° C. and 5.0% CO2. Cells were then washed 3× to remove unbound virus and incubated for 14 days. Productive infection was monitored via an in-house-developed p24 antigen ELISA, as described elsewhere (Beirnaert et al., 1998).
This viral infectivity can be quantified by calculating the TCID50 (Tissue Culture Infectious Dose 50%, i.e., the dose of virus that has a 50% chance of infecting a cell culture) values of the viral stocks. Addition of visfatin reduces the TCID50 values of BaL by approximately one log in both PBMC and MDM cultures, signifying a 90% reduction in viral infectivity (FIG. 7, Panel A).

[3] = tested on: T-tropic X4 HIV lab-strain IIIB (=HxB2); assay: In vitro infection with X4 HIV lab-strain IIIB, viral infectivity (TCID50); format: cell-based; conditions: same experiment as for BaL
Description: as §2
This signifies that by selectively inhibiting R5 and not X4 HIV, visfatin contributes to the HIV co-receptor switch seen in ca. 50% of all patients in which the co-receptor usage of the dominant quasispecies within the patient switches from the moderately virulent R5 to the more aggressive X4, leading to increased progression to AIDS.

[4] = tested on: X4 strain of the 968 clone (968-1); assay: In vitro infection of MDM with clinical isolate 968-1 (X4), viral titer (TCID50); format: cell-based, HIV
Description: as §1, §2
R5 and X4 strains of the 968 viral clone were isolated from one patient, and differ only in co-receptor usage.

[5] = PBMC cultures, 200 ng/ml PBEF1, 14 days of culture
[6] = 200 ng/ml PBEF1, 14 days of culture

Compound | infectivity of HIVBaL (TCID50) ([1]; PBMC cultures, 100 μM nicotinamide mononucleotide, 14 days of culture) | reduction in viral infectivity [1, 5] | reduction of TCID50 value of BaL [1, 5] | viral infectivity (productive infection, p24 secretion) ([1]; activated PBMC cultures, recombinant visfatin added prior to infection with BaL) | reduction in viral infectivity [2, 6] | reduction of TCID50 value of BaL [2, 6] | viral infectivity (productive infection, p24 secretion) ([2]; recombinant visfatin (200 ng/ml) added prior to infection with BaL) | effect on viral infectivity of X4 strain IIIB [3] | viral titer of X4 clinical isolate in MDM [4, 6] | productive infection of MDM by X4 clinical isolate 968-1 ([4]; strain incapable of infecting untreated MDM)
NC(=O)c1ccc[n+]([C@@H]2O[C@H](COP(=O)([O-])O)[C@@H](O)[C@H]2O)c1 [NMN, nicotinamide mononucleotide, reference compound] | reduces the infectivity |  |  |  |  |  |  |  |  | 
visfatin: Recombinant visfatin (PBEF1, nicotinamide phosphoribosyltransferase) protein obtained from PeproTech |  | 90% | approximately one | decreases the viral infectivity | 90% | approximately one | decreases the viral infectivity | does not mediate this effect | increased the viral titer | allowed the 968-1 clone to establish a productive infection
